The subject of this test is Plasmodium falciparum. The test can be described thus: Antimalarial activity against Plasmodium falciparum assessed as reduction in parasite growth after 72 hrs by LDH assay. In kind it is functional, organism-based.
On to `CC1(C)CC(=O)N([C@H](c2cncc(Cl)c2)[C@@H]2C[C@H]2C(=O)N[C@H]2C[C@H](C(F)(F)F)Oc3ccccc32)C(=N)N1`, for which the EC50 was determined as 0.5 nM.

In the case of `CCC1(CC)CC(=O)N([C@H](CCCC(C)OC)[C@@H]2C[C@H]2C(=O)N[C@H]2CC(C)(C)Oc3ccccc32)C(=N)N1` (stereo partly specified), the EC50 was found to be 0.7 nM.

With `CC[C@@]1(C)CC(=O)N([C@H](c2cncc(F)c2)[C@@H]2C[C@H]2C(=O)N[C@H]2CC(C)(C)Oc3ccccc32)C(=N)N1`, the EC50 worked out at 0.6 nM.

Turning to `CCC1(CC)CC(=O)N([C@H](c2cccnc2)[C@@H]2C(C)[C@H]2C(=O)N[C@H]2CC(C)(C)Oc3ccccc32)C(=N)N1` (stereo partly specified), the EC50 was determined as 0.7 nM.

In the case of `CC[C@]1(C)CC(=O)N([C@H](c2cncc(F)c2)[C@@H]2C[C@H]2C(=O)N[C@H]2C[C@H](C(F)(F)F)Oc3ccccc32)C(=N)N1`, the EC50 came out at 0.3 nM.

On to `CC[C@]1(C)CC(=O)N([C@H](c2cncc(F)c2)[C@@H]2C[C@H]2C(=O)N[C@H]2CC(C)(C)Oc3ccc(F)cc32)C(=N)N1`, for which the EC50 was 0.3 nM.

As usually defined, the EC50 is the midpoint of the concentration-response curve.

The values are drawn from ChEMBL document CHEMBL4834491, “Novel Compounds for Treating Malaria” (ACS Med Chem Lett, 2021).
